Reference: ChEMBL document CHEMBL1909046, “DrugMatrix in vitro pharmacology data”

Legend:
[1] = target: 5-hydroxytryptamine receptor 4 (Cavia porcellus, UniProt O70528); assay type: cell membranes, Dunkin-Hartley, Striatum, Membrane; further: in other assays of this panel Not Active means under 50% inhibition at 10 µM
[2] = target: Sigma non-opioid intracellular receptor 1 (Homo sapiens, UniProt Q99720); assay: DRUGMATRIX: Sigma1 radioligand binding (ligand: [3H] Haloperidol); assay type: cell membranes, Jurkat, Membrane; conditions: Not Active = under 50% inhibition at 10 µM
[3] = DRUGMATRIX: Tumor Necrosis Factor (TNF), Non-Selective radioligand binding (ligand: [125I] TNF-alpha); assay type: cell membranes, Membrane; conditions: u-937; Not Active = under 50% inhibition at 10 µM
[4] = target: T1, C-X-C chemokine receptor type 2 (Homo sapiens, UniProt P25025); assay type: cell membranes, Membrane; conditions: cho-k1; further: in other assays of this panel Not Active means under 50% inhibition at 10 µM
T1 sequence (P25025 whole entry): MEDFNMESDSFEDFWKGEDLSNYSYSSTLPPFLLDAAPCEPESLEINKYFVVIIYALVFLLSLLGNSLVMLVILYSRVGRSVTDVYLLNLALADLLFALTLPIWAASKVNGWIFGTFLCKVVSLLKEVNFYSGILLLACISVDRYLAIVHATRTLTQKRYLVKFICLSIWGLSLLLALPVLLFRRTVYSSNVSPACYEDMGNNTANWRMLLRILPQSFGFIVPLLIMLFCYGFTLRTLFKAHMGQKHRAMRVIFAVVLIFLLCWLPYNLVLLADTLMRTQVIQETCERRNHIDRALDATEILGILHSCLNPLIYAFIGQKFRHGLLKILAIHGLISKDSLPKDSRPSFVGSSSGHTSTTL

[5] = DRUGMATRIX: Glutamate, NMDA, Phencyclidine radioligand binding (ligand: [3H] TCP); assay type: cell membranes, Rattus norvegicus, Wistar, Cerebral cortex, Membrane; conditions: Not Active = under 50% inhibition at 10 µM
Leukotriene C4 synthase = target: T2, Leukotriene C4 synthase (Cavia porcellus, UniProt A6XA80); assay: biochemical; assay type: tissue-based, Lung;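 further: enzyme inhibition assay of leukotriene C4 synthase, using LTA4 as the substrate; in other assays of this panel Not Active means under 50% inhibition at 10 µM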
T2 sequence (A6XA80 whole entry): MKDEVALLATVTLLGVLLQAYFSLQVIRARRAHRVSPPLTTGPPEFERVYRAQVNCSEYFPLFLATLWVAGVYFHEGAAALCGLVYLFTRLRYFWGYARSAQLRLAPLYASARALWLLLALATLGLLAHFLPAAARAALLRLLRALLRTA

[6] = target: T3, Muscarinic acetylcholine receptor M5 (Homo sapiens, UniProt P08912); assay type: cell membranes, CHO-K1, Membrane; conditions: cho-k1; further: in other assays of this panel Not Active means under 50% inhibition at 10 µM
T3 sequence (P08912 whole entry): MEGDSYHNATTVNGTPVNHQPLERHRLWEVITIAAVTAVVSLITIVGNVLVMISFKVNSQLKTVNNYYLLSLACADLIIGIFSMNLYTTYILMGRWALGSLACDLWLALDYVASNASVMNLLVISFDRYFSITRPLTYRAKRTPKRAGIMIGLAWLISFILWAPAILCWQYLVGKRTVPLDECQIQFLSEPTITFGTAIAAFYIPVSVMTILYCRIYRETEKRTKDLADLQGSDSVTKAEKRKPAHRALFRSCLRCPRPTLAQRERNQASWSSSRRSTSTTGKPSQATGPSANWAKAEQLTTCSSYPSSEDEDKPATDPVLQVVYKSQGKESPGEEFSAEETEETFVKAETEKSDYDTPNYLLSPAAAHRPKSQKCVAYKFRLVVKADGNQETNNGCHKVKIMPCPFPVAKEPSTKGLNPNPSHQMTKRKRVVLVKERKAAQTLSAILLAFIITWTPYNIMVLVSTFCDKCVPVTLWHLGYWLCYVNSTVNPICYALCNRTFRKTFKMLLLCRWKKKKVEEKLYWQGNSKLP

Nitric oxide synthase 1 = Nitric oxide synthase 1 (Rattus norvegicus, UniProt P29476); assay type: tissue-based, Cerebellum; further: in other assays of this panel Not Active means under 50% inhibition at 10 µM
[7] = target: Platelet-activating factor receptor (Homo sapiens, UniProt P25105); assay: biochemical; assay type: tissue-based; conditions: platelet; further: in other assays of this panel Not Active means under 50% inhibition at 10 µM
[8] = DRUGMATRIX: Platelet-Derived Growth Factor (PDGF) radioligand binding (ligand: [125I] PDGF); assay type: cell-based; conditions: nih3t3; Not Active = under 50% inhibition at 10 µM
[9] = target: Protein kinase C alpha type (Homo sapiens, UniProt P17252); assay type: cell-based; conditions: sf9
[10] = target: Epidermal growth factor receptor (Homo sapiens, UniProt P00533); assay: DRUGMATRIX: Protein Tyrosine Kinase, EGF Receptor enzyme inhibition (substrate: Poly(Glu:Tyr)); assay type: cell-based, Insect cells; conditions: insect cells; Not Active = under 50% inhibition at 10 µM
Cytochrome P450 2C9 = Cytochrome P450 2C9 (Homo sapiens, UniProt P11712); conditions: bti-tn-5b1-4; further: in other assays of this panel Not Active means under 50% inhibition at 10 µM
Cytochrome P450 2D6 = Cytochrome P450 2D6 (Homo sapiens, UniProt P10635); conditions: bti-tn-5b1-4; further: in other assays of this panel Not Active means under 50% inhibition at 10 µM
Estrogen receptor beta = Estrogen receptor beta (Homo sapiens, UniProt Q92731); conditions: sf9; further: in other assays of this panel Not Active means under 50% inhibition at 10 µM
Chain of Estrogen receptor beta (Q92731 whole entry): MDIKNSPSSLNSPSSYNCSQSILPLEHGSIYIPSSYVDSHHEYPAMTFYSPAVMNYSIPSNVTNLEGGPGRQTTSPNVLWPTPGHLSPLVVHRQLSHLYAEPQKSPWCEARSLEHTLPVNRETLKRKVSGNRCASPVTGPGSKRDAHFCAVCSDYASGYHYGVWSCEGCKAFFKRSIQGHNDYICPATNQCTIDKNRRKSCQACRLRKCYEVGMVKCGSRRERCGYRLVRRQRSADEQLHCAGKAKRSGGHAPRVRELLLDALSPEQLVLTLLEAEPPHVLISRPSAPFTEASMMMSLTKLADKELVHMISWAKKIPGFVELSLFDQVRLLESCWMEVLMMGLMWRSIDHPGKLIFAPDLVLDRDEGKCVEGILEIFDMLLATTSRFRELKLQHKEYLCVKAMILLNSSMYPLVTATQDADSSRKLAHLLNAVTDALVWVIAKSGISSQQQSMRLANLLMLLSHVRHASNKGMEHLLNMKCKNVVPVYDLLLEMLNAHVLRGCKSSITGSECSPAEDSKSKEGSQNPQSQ

Chain of Platelet-activating factor receptor (P25105 whole entry): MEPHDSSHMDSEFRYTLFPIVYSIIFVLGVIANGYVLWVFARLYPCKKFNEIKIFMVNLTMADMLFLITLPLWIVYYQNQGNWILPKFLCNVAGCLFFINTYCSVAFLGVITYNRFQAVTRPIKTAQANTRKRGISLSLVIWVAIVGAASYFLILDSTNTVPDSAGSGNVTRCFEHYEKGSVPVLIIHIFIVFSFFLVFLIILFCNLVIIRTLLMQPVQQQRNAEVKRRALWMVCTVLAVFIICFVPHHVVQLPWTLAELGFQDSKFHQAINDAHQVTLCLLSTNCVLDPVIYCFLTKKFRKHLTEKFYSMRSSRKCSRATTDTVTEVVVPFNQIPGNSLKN
Chain of Sigma non-opioid intracellular receptor 1 (Q99720 whole entry): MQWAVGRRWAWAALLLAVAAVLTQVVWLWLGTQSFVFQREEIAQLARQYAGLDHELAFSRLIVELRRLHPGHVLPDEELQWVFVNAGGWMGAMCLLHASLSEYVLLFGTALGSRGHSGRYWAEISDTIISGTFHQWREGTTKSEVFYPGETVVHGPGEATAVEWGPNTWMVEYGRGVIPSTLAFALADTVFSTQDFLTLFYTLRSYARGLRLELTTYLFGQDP
Chain of Nitric oxide synthase 1 (P29476 whole entry): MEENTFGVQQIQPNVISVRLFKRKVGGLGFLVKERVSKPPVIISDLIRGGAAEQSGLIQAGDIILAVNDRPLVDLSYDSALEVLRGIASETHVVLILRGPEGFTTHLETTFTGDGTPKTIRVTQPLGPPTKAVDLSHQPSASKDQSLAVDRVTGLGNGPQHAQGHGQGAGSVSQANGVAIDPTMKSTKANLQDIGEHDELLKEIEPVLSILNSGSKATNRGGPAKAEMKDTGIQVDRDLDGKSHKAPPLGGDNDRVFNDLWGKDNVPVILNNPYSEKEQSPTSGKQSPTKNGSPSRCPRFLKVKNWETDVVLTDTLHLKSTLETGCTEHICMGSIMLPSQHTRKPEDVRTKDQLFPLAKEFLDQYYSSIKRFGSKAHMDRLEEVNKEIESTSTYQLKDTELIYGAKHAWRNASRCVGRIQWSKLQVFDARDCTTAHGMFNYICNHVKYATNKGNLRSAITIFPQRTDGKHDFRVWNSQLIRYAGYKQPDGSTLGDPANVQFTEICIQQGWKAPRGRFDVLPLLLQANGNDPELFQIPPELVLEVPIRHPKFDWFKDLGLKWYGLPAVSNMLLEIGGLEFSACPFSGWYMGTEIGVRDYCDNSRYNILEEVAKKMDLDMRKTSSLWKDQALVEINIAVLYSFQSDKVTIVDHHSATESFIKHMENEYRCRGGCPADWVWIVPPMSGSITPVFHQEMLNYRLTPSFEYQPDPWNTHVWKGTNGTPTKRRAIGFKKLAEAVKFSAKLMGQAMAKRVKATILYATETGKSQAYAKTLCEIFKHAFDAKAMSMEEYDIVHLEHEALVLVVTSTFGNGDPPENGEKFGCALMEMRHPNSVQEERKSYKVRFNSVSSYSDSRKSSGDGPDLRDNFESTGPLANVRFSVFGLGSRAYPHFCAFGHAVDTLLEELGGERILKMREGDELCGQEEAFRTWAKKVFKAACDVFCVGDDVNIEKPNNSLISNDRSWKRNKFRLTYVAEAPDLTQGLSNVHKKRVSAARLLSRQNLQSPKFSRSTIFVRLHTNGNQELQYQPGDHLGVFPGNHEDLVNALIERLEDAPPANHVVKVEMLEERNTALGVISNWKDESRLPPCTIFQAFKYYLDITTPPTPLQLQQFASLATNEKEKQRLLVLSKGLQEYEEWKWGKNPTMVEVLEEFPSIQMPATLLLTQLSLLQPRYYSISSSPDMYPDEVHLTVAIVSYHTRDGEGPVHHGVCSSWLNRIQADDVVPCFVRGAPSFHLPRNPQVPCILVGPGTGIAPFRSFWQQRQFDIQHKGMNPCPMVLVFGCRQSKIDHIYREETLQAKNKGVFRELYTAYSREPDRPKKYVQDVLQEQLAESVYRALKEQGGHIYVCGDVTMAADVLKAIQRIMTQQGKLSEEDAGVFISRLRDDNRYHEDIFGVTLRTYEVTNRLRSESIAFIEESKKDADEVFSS
Chain of 5-hydroxytryptamine receptor 4 (O70528 whole entry): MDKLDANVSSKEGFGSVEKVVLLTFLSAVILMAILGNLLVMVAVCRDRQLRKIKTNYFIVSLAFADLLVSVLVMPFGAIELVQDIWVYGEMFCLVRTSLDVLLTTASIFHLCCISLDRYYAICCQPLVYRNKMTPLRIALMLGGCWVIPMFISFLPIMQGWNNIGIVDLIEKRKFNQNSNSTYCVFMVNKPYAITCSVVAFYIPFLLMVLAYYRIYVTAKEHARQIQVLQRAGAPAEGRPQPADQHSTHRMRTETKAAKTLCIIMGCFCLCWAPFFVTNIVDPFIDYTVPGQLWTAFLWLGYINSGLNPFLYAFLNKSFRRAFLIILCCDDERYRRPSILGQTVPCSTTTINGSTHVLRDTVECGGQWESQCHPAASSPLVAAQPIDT
Chain of Epidermal growth factor receptor (P00533 whole entry): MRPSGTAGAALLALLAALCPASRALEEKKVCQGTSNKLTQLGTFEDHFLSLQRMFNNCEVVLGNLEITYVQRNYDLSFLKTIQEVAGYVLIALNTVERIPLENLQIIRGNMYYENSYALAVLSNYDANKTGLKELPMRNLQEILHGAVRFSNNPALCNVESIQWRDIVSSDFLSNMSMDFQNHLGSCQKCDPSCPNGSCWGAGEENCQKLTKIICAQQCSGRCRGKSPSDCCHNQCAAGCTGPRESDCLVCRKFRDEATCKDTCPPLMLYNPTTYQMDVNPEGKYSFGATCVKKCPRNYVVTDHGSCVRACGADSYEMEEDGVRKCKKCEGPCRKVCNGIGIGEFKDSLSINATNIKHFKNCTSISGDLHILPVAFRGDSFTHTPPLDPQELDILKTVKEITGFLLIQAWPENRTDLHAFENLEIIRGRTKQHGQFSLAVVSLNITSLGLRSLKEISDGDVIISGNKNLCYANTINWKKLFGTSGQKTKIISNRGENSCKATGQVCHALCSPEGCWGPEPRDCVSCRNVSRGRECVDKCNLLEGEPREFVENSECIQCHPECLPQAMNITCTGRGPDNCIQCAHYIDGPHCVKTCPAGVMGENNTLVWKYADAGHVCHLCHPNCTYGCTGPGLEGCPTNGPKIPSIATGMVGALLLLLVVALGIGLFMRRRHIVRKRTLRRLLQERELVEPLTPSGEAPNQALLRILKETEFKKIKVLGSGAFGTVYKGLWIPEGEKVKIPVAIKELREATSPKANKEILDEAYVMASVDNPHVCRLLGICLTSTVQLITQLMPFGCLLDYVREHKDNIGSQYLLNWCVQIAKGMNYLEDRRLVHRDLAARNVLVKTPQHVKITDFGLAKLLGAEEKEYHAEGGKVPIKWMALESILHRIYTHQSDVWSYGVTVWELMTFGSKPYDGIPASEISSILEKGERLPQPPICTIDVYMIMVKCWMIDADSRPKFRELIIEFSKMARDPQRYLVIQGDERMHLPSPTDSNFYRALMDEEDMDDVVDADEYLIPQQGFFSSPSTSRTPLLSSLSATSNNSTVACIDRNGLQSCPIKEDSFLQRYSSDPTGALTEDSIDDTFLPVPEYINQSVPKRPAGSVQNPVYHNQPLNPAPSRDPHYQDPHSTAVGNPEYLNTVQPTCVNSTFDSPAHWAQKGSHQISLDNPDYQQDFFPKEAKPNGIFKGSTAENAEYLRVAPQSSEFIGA

| SMILES | IC50 [1] | IC50 ([2]; jurkat) | IC50 [3] | Ki [3] | IC50 [4] | IC50 [5] | Ki [5] | IC50 (Leukotriene C4 synthase) | IC50 [6] | IC50 (Nitric oxide synthase 1) | IC50 [7] | IC50 [8] | Ki [8] | IC50 [9] | IC50 [10] | IC50 (Cytochrome P450 2C9) | Ki (Cytochrome P450 2C9) | IC50 (Cytochrome P450 2D6) | Ki (Cytochrome P450 2D6) | IC50 (Estrogen receptor beta) | other results |
| --- | --- | --- | --- | --- | --- | --- | --- | --- | --- | --- | --- | --- | --- | --- | --- | --- | --- | --- | --- | --- | --- |
| COCc1c(C(C)C)nc(C(C)C)c(/C=C/[C@@H](O)C[C@@H](O)CC(=O)O)c1-c1ccc(F)cc1 [CERIVASTATIN] | Not Active | Not Active | Not Active | Not Active | Not Active | Not Active | Not Active | Not Active | Not Active | Not Active | Not Active | Not Active | Not Active | Not Active | Not Active | Not Active | Not Active | Not Active | Not Active | Not Active | – |
| CC(=O)O[C@]1(C(C)=O)CC[C@H]2[C@@H]3C=C(Cl)C4=CC(=O)CC[C@]4(C)[C@H]3CC[C@@]21C [CHLORMADINONE ACETATE] | Not Active | Not Active | Not Active | Not Active | Not Active | Not Active | Not Active | Not Active | Not Active | Not Active | Not Active | Not Active | Not Active | Not Active | Not Active | Not Active | Not Active | Not Active | Not Active | Not Active | – |
| CN(C)CCCC1(c2ccc(F)cc2)OCc2cc(C#N)ccc21 (stereo unspecified) [CITALOPRAM] | Not Active | – | Not Active | Not Active | Not Active | Not Active | Not Active | Not Active | Not Active | Not Active | Not Active | Not Active | Not Active | Not Active | Not Active | Not Active | Not Active | Not Active | Not Active | Not Active | IC50 ([2]; read-out: IC50): 398 nM; Ki ([2]; read-out: Ki): 167 nM |
| COC(=O)[C@H](c1ccccc1Cl)N1CCc2sccc2C1 [CLOPIDOGREL] | Not Active | Not Active | Not Active | Not Active | Not Active | Not Active | Not Active | Not Active | Not Active | Not Active | Not Active | Not Active | Not Active | Not Active | Not Active | Not Active | Not Active | Not Active | Not Active | Not Active | – |
| C[C@]12CCC(=O)C=C1CC[C@@H]1[C@@H]2C(=O)C[C@@]2(C)[C@H]1CC[C@]2(O)C(=O)CO [CORTISONE] | Not Active | Not Active | Not Active | Not Active | Not Active | Not Active | Not Active | Not Active | Not Active | Not Active | Not Active | Not Active | Not Active | Not Active | Not Active | Not Active | Not Active | Not Active | Not Active | Not Active | – |
| Cc1ccccc1N1CCN(CCc2nnc3n2CCCC3)CC1 [DAPIPRAZOLE] | Not Active | Not Active | Not Active | Not Active | Not Active | Not Active | Not Active | Not Active | Not Active | Not Active | Not Active | Not Active | Not Active | Not Active | Not Active | Not Active | Not Active | Not Active | Not Active | Not Active | – |
| CC(=O)OCC(=O)[C@@]1(OC(C)=O)[C@@H](C)C[C@H]2[C@@H]3C[C@H](F)C4=CC(=O)C=C[C@]4(C)[C@@]3(F)[C@@H](O)C[C@@]21C [DIFLORASONE DIACETATE] | Not Active | Not Active | Not Active | Not Active | Not Active | Not Active | Not Active | Not Active | Not Active | Not Active | Not Active | Not Active | Not Active | Not Active | Not Active | Not Active | Not Active | Not Active | Not Active | Not Active | – |
| COc1ccc([C@@H]2Sc3ccccc3N(CCN(C)C)C(=O)[C@@H]2OC(C)=O)cc1 [DILTIAZEM] | Not Active | Not Active | Not Active | Not Active | Not Active | Not Active | Not Active | Not Active | Not Active | Not Active | Not Active | Not Active | Not Active | Not Active | Not Active | Not Active | Not Active | Not Active | Not Active | Not Active | – |
| C=C1CC[C@H](O)C/C1=C/C=C1\CCC[C@]2(C)[C@@H]([C@H](C)/C=C/[C@H](C)C(C)C)CC[C@@H]12 [ERGOCALCIFEROL] | Not Active | Not Active | Not Active | Not Active | Not Active | Not Active | Not Active | Not Active | Not Active | Not Active | Not Active | Not Active | Not Active | Not Active | Not Active | Not Active | Not Active | Not Active | Not Active | Not Active | – |
